The test system of data set [1] is mouse derived macrophage like cell J774.1. The method, then: With regard to arteriosclerotic athero model, mouse derived macrophage like cell J774.1 was used. PDT was performed after contacting with the second generation photosensitive substance ATX-S10 (ATX-S10 Na(II) (K.K. Hikari Chemical Lab.)) with good excretion, concentration of 6 μg/ml for 24 hours.
Irradiation of the light was performed with the light source: excimer dye laser (EDL-1, Hamamatsu Photonix Co., wavelength 670 nm, pulse width 10 ns); pulse energy density 1.2 to 9.5 mJ/cm^2 (corresponding to peak intensity […]); and repetition frequency 5 to 80 Hz. PDT effect as evaluated by a rate of cell death using MTT after performing for 24 hours.
Measurement was performed in concentration of administered photosensitive substance at 25 μg/ml and 50 μg/ml.

The conditions of data set [2]: concentration 6 μg/ml.

As to `C=Cc1c(C)c2cc3nc(cc4[nH]c(cc5nc(cc1[nH]2)C(C)=C5CCC(=O)NC(CC(=O)[O-])C(=O)[O-])c(CCC(=O)NC(CC(=O)[O-])C(=O)[O-])c4C)C(C)(O)/C3=C\C=NO.[Na+].[Na+].[Na+].[Na+]` (stereo not shown) [ATX-S10, Iminochlorin aspartic acid derivative], in data set [1] (6 μg/ml for 24 hours, excimer dye laser 670 nm, pulse width 10 ns, high pulse energy density (high peak intensity), repetition frequency 5 to 80 Hz, MTT after 24 hours), the “PDT effect (rate of cell death)” value is reported as “PDT effect almost disappeared”. The “rate of cell death at maximum” value in data set [1] (6 μg/ml for 24 hours, excimer dye laser 670 nm, pulse width 10 ns, low pulse energy density (low peak intensity), repetition frequency 5 to 80 Hz, MTT after 24 hours) is listed as no more than 70%. In addition, the “rate of cell death with changing irradiation energy density” value in data set [1] (25 μg/ml and 50 μg/ml, same irradiation energy density) is recorded as “rate of cell death is different, if the concentration of photosensitive substance is different”. Besides, the “changes of absorption (bleaching) with changing irradiation energy density” value in data set [2] is “depends on total irradiation energy (J/cm^2) and not on peak intensity”.
